Active and inactive are the calls of the source. The rule behind the calls is not given here.
Legend:
[1] = target: T1, Prostaglandin G/H synthase 2 (Homo sapiens) (UniProt P35354); assay: Inhibition of human recombinant COX2 up to 1 mM by EIA
T1 sequence (whole entry): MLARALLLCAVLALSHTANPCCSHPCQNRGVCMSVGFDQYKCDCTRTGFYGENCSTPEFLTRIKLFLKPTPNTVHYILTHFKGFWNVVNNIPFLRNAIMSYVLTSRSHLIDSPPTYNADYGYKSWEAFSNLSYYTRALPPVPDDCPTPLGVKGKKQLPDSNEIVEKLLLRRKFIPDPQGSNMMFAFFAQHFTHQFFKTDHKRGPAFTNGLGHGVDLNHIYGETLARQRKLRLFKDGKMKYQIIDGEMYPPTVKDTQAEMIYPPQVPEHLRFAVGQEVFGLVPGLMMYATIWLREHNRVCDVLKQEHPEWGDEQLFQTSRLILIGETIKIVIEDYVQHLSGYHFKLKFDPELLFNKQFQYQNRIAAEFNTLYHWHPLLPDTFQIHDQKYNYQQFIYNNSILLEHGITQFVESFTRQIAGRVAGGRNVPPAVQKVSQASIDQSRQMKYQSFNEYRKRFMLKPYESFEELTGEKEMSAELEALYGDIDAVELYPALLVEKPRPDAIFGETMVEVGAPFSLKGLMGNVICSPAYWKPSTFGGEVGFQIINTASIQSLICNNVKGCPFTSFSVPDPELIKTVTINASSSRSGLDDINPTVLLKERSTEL

[2] = target: T2, Prostaglandin G/H synthase 1 (Ovis aries) (UniProt P05979); assay: Inhibition of ovine COX1 up to 1 mM by EIA
T2 sequence (whole entry): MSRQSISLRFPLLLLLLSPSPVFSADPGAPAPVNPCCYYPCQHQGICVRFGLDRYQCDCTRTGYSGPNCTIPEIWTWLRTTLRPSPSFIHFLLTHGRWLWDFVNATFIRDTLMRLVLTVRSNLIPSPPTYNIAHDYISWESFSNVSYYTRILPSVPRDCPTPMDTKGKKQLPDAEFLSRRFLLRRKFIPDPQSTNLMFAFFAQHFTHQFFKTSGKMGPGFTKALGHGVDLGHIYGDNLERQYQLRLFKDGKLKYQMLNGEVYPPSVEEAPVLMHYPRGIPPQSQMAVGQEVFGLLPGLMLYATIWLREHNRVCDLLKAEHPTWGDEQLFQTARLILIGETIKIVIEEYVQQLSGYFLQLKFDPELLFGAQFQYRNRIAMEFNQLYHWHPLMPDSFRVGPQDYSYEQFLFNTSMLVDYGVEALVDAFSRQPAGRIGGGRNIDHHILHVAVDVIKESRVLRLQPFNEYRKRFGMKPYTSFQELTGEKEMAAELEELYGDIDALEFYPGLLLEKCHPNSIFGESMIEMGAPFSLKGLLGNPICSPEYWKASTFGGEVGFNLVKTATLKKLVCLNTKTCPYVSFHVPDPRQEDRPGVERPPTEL

inhibition [1]: inactive
inhibition [2]: inactive
Compound: CC(C)Cc1ccc([C@@H](CF)C(=O)O)cc1

Reference: ChEMBL document CHEMBL1944509, “Methyl-monofluorination of ibuprofen selectively increases its inhibitory activity toward cyclooxygenase-1 leading to enhanced analgesic activity and reduced gastric damage in vivo” (Bioorg Med Chem Lett, 2011)
